Measured values as given in patent US20110152343A1, “PROTEASE INHIBITORS AND BROAD-SPECTRUM ANTIVIRAL” (Functional Genetics, Inc., priority 2009, published 2011).

Test system: RSV
Assay: RSV infection, timing of administration (production of virus particles)

## N=C(N)c1ccc2oc(/C=C/c3nc4ccc(C(=N)N)cc4[nH]3)cc2c1 [NSC 369723]
Administration by roughly 18 hours after infection with RSV
  inhibition of the production of virus particles (pfu/ml): much reduced or lost
Administration from about 6-12 hours after infection with RSV
  inhibition of the production of virus particles (pfu/ml): moderately inhibited
